Results from patent US20150258059A1, “ANTIMICROBIAL AND RADIOPROTECTIVE COMPOUNDS” (BioDiem, Ltd, priority 2001, published 2015).

The substances below were run on Enterobacter aerogenes B-687 (assay: Sensitivity of strains: suppression of growth). Conditions: Compound (1) 1.0%; antibiotics disc method.
Type: cell-based

Substance	Suppression of Growth (+/−)
polymixin [Antibiotic 9]	+
ristomycin [Antibiotic 11]	−

What follows are substances tested on Escherichia coli M-17 (assay: Sensitivity of strains: suppression of growth). Conditions: Compound (1) 1.0%; antibiotics disc method.
Type: cell-based

Substance	Suppression of Growth (+/−)
polymixin [Antibiotic 9]	+
ristomycin [Antibiotic 11]	−

The substances below were run on Klebsiella pneumoniae M-248 (assay: Sensitivity of strains: suppression of growth). Conditions: Compound (1) 1.0%; antibiotics disc method.
Type: cell-based

Substance	Suppression of Growth (+/−)
polymixin [Antibiotic 9]	−
ristomycin [Antibiotic 11]	−

What follows are substances tested on Bacillus sp. B-575 (assay: Sensitivity of strains: suppression of growth). Conditions: not given. Note: key: + sensitive strains; + moderately sensitive strains; − stable strains.
Type: cell-based

Substance	Suppression of Growth (+/−)
polymixin [Antibiotic 9]	−

These substances were tested on γ-hemolytic streptococcus B-672 (assay: Sensitivity of strains: suppression of growth). Conditions: Compound (1) 1.0%; antibiotics disc method.
Type: cell-based

Substance	Suppression of Growth (+/−)
polymixin [Antibiotic 9]	−
ristomycin [Antibiotic 11]	+

Each substance was assayed on Acinetobacter B-676 (assay: Sensitivity of strains: suppression of growth). Conditions: Compound (1) 1.0%; antibiotics disc method.
Type: cell-based

Substance	Suppression of Growth (+/−)
polymixin [Antibiotic 9]	−
ristomycin [Antibiotic 11]	−

The substances below were run on Citrobacter diversus B-678 (assay: Sensitivity of strains: suppression of growth). Conditions: Compound (1) 1.0%; antibiotics disc method.
Type: cell-based

Substance	Suppression of Growth (+/−)
ristomycin [Antibiotic 11]	−

What follows are substances tested on Acinetobacter B-677 (assay: Sensitivity of strains: suppression of growth). Conditions: Compound (1) 1.0%; antibiotics disc method.
Type: cell-based

Substance	Suppression of Growth (+/−)
polymixin [Antibiotic 9]	−

What follows are substances tested on Staphylococci epidermidis D-513 (assay: Sensitivity of strains: suppression of growth). Conditions: Compound (1) 1.0%; antibiotics disc method.
Type: cell-based

Substance	Suppression of Growth (+/−)
polymixin [Antibiotic 9]	−
ristomycin [Antibiotic 11]	+

Each substance was assayed on Salmonella typhimurium M-727 (assay: Sensitivity of strains: suppression of growth). Conditions: Compound (1) 1.0%; antibiotics disc method.
Type: cell-based

Substance	Suppression of Growth (+/−)
ristomycin [Antibiotic 11]	−

Each substance was assayed on Enterobacter aerogenes B-679 (assay: Sensitivity of strains: suppression of growth). Conditions: Compound (1) 1.0%; antibiotics disc method.
Type: cell-based

Substance	Suppression of Growth (+/−)
polymixin [Antibiotic 9]	+
ristomycin [Antibiotic 11]	−

The substances below were run on Staphylococcus aureus M-12159 (assay: Sensitivity of strains: suppression of growth). Conditions: Compound (1) 1.0%; antibiotics disc method.
Type: cell-based

Substance	Suppression of Growth (+/−)
polymixin [Antibiotic 9]	−
ristomycin [Antibiotic 11]	+

The substances below were run on Staphylococcus aureus M-209 (assay: Sensitivity of strains: suppression of growth). Conditions: Compound (1) 1.0%; antibiotics disc method.
Type: cell-based

Substance	Suppression of Growth (+/−)
polymixin [Antibiotic 9]	+
ristomycin [Antibiotic 11]	+

The substances below were run on Neisseria meningitidis M-6231 (assay: Sensitivity of strains: suppression of growth). Conditions: Compound (1) 1.0%; antibiotics disc method.
Type: cell-based

Substance	Suppression of Growth (+/−)
polymixin [Antibiotic 9]	−
ristomycin [Antibiotic 11]	−

What follows are substances tested on Alkaligenes sp. B-667 (assay: Sensitivity of strains: suppression of growth). Conditions: Compound (1) 1.0%; antibiotics disc method.
Type: cell-based

Substance	Suppression of Growth (+/−)
polymixin [Antibiotic 9]	+
ristomycin [Antibiotic 11]	−

The substances below were run on Salmonella paratyphi M-16469 (assay: Sensitivity of strains: suppression of growth). Conditions: Compound (1) 1.0%; antibiotics disc method.
Type: cell-based

Substance	Suppression of Growth (+/−)
polymixin [Antibiotic 9]	−
ristomycin [Antibiotic 11]	−

Each substance was assayed on Shigella flexneri M-2A6907 (assay: Sensitivity of strains: suppression of growth). Conditions: Compound (1) 1.0%; antibiotics disc method.
Type: cell-based

Substance	Suppression of Growth (+/−)
ristomycin [Antibiotic 11]	−

Each substance was assayed on Conditional pathogenic enterobacteria gram-negative aerobic bacilli (assay: not given). Conditions: not given.
Type: cell-based

Substance	Suppression of Growth (+/−)
polymixin [Antibiotic 9]	−

These substances were tested on β-hemolytic streptococcus B-624 (assay: Sensitivity of strains: suppression of growth). Conditions: Compound (1) 1.0%; antibiotics disc method.
Type: cell-based

Substance	Suppression of Growth (+/−)
polymixin [Antibiotic 9]	−
ristomycin [Antibiotic 11]	+

What follows are substances tested on Alkaligenes sp. B-689 (assay: Sensitivity of strains: suppression of growth). Conditions: Compound (1) 1.0%; antibiotics disc method.
Type: cell-based

Substance	Suppression of Growth (+/−)
polymixin [Antibiotic 9]	−
ristomycin [Antibiotic 11]	−

The substances below were run on Escherichia coli B-65 (assay: Sensitivity of strains: suppression of growth). Conditions: Compound (1) 1.0%; antibiotics disc method.
Type: cell-based

Substance	Suppression of Growth (+/−)
polymixin [Antibiotic 9]	+
ristomycin [Antibiotic 11]	+

What follows are substances tested on Neisseria meningitidis M-A72 (assay: Sensitivity of strains: suppression of growth). Conditions: Compound (1) 1.0%; antibiotics disc method.
Type: cell-based

Substance	Suppression of Growth (+/−)
polymixin [Antibiotic 9]	−
ristomycin [Antibiotic 11]	−

Each substance was assayed on Pseudomonas aeruginosa B-601 (assay: Sensitivity of strains: suppression of growth). Conditions: Compound (1) 1.0%; antibiotics disc method.
Type: cell-based

Substance	Suppression of Growth (+/−)
polymixin [Antibiotic 9]	+
ristomycin [Antibiotic 11]	−

These substances were tested on Corynebacterium diphtheriae B-670 (assay: Sensitivity of strains: suppression of growth). Conditions: Compound (1) 1.0%; antibiotics disc method.
Type: cell-based

Substance	Suppression of Growth (+/−)
polymixin [Antibiotic 9]	−
ristomycin [Antibiotic 11]	+

Each substance was assayed on Yersinia pseudotuberculosis (assay: not given). Conditions: Compound (1) 1.0%; antibiotics disc method.
Type: cell-based

Substance	Suppression of Growth (+/−)
polymixin [Antibiotic 9]	−
ristomycin [Antibiotic 11]	−

What follows are substances tested on Staphylococcus aureus B-674 (assay: Sensitivity of strains: suppression of growth). Conditions: Compound (1) 1.0%; antibiotics disc method.
Type: cell-based

Substance	Suppression of Growth (+/−)
polymixin [Antibiotic 9]	−
ristomycin [Antibiotic 11]	−

The substances below were run on Shigella sonnei B-720 (assay: Sensitivity of strains: suppression of growth). Conditions: Compound (1) 1.0%; antibiotics disc method.
Type: cell-based

Substance	Suppression of Growth (+/−)
ristomycin [Antibiotic 11]	−

Each substance was assayed on Acinetobacter B-681 (assay: Sensitivity of strains: suppression of growth). Conditions: Compound (1) 1.0%; antibiotics disc method.
Type: cell-based

Substance	Suppression of Growth (+/−)
polymixin [Antibiotic 9]	−
ristomycin [Antibiotic 11]	−

Each substance was assayed on Klebsiella pneumoniae M-A21 (assay: Sensitivity of strains: suppression of growth). Conditions: Compound (1) 1.0%; antibiotics disc method.
Type: cell-based

Substance	Suppression of Growth (+/−)
polymixin [Antibiotic 9]	−
ristomycin [Antibiotic 11]	−

What follows are substances tested on Staphylococcus aureus B-685 (assay: Sensitivity of strains: suppression of growth). Conditions: Compound (1) 1.0%; antibiotics disc method.
Type: cell-based

Substance	Suppression of Growth (+/−)
polymixin [Antibiotic 9]	−
ristomycin [Antibiotic 11]	+

The substances below were run on Staphylococcus epidermidis BK-30 (assay: Sensitivity of strains: suppression of growth). Conditions: Compound (1) 1.0%; antibiotics disc method.
Type: cell-based

Substance	Suppression of Growth (+/−)
polymixin [Antibiotic 9]	−
ristomycin [Antibiotic 11]	+

Each substance was assayed on Escherichia coli B-683 (assay: Sensitivity of strains: suppression of growth). Conditions: Compound (1) 1.0%; antibiotics disc method.
Type: cell-based

Substance	Suppression of Growth (+/−)
polymixin [Antibiotic 9]	+
ristomycin [Antibiotic 11]	−
